Measurements: article PMC6941404, “Pigmentosins from Gibellula sp. as antibiofilm agents and a new glycosylated asperfuran from Cordyceps javanica” (Beilstein Journal of Organic Chemistry, 2019)
Values after ≈ are worked out from the molar mass of the structure shown. Read-outs that look alike come from different tables or passages of the source.

Columns and labels:
Cytotoxicity assay (MTT) = assay type: cell-based
Experimental: (§1) To evaluate the biological effects of compounds 1–6, various assays were carried out. The antimicrobial activity of the isolated compounds against Bacillus subtilis DSM10, Escherichia coli DSM498, Candida tenuis MUCL29892, and Mucor plumbeus MUCL49355 was determined as described by Kuephadungphan and co-workers. The nematicidal activity against Caenorhabditis elegans was investigated using a microtiter plate assay according to Helaly and co-workers, while the cytotoxicity was tested against murine fibroblast (L929) and human HeLa (KB3.1) cell lines according to Chepkirui and co-workers.
(§2) Biological activity screening of compounds 1–6 […]
The isolated compounds were tested for cytotoxic activity using the MTT (3 -(4,5-dimethylthiayol -2-yl)-2,5-diphenyltetrayolium bromide) method in 96 -well microtiter plates following the procedure previously described by Chepkirui et al.7 against th e cervix carcino ma cell line KB3.1 and the established mouse fibroblast cell line L929. The assay was kindly conducted by Wera Collisi, Department of Microbial Drugs, Helmholtz Centre of Infection Research, Germany. The tested cell lines were cultured in EBM -2 (Lonza) sup plemented with 10% fetal bovine serum (Gibco) under 10% CO2 at 37 °C. A 60 µL of serial dilutions from an initial stock (1 mg/mL) of the test compounds in MeOH was added to 120 µL aliquots of a cell suspension (50,000 cells/mL) in 96-well microplates.
After incubation for five days, 20 µL of MTT in phosphate buffered saline (PBS) were added to give a final concentration of 0.5 mg/mL. The plates were further incubated for two hours. The precipitate […]
of formazan crystals was centrifuged and the supernatant was then discarded. Each well was washed with 100 µL of PBS and 100 µL of isopropanol containing 0.4% hydrochloric acid were subsequently added in order to get the residual dissolved. The plates were gently shaken for 20 min before the absorbance at 590 nm was measured using an ELISA microplate reader (Victor). The concentration, at which the growth of cells was inhibited to 50% of the control (IC50), was obtained from the dose - response curves. Methanol was used as negative control while epothilone A and B wer e used as positive controls for L929 and KB3.1 cell lines, respectively. […]
(§3) After incubation at 37 °C under shaking condition, the overnight cultures were adjusted to equal the turbidity of 0.5 McFarland standard using the assay medium. The assay was carried out in 96 -well tissue cultured -treated microplates (TPP®, Germany) for S. aureus and non-treated plates (Falcon®MicroTestTM, USA) for P. aeruginosa , in which 10 μ L of each compound (0.5 mg/m L) in six replicates were mixed together with 140 μ L of bacterial suspension. Methanol and CASO medium with and without 4% glucose were used as negative controls and tetracycline (100 μg/m L) as positive control. Plates were covered with a sterile adhesive porous paper (Kisker Biotech GmbH, Steinfurt, Germany) and incubated at 37 °C for 24 h.
After incubation, ba cterial biofilms were stained with 0.1% crystal violet solution (Sigma -Aldrich) following the protocol of O’Toole .9 Then, the biofilm was subsequently quantified using a microplate reader at 550 nm. […]
aeruginosa PA14 were further evaluated for their bacteriostatic and bactericidal activit ies. The assay was performed in the Bioscreen 100 -well Honeycomb plate according to the protocol described by Yuyama et al. 13 where the MIC values were determined. […]

[1] = test system: Staphylococcus aureus DSM1104; test: Anti-biofilm activity, microtiter dish biofilm formation assay; assay type: cell-based; details: S. aureus DSM1104 (ATCC25923); lowest concentration preventing biofilm formation by at least 50%; 24 h; NA = No activity
Experimental: (§4) The isolated compounds were also tested for their ability to interfere in the biofilm formation of Staphylococcus aureus DSM1104 and Pseudomonas aeruginosa PA14 [51]. The biofilm inhibition assay was performed in 96-well microtiter plates using the microtiter dish biofilm formation assay described by O’Toole, with minor modifications, as outlined in our recent publications. The antibiofilm activity is expressed as MIC values, which is defined as the lowest concentration of substance that prevents biofilm formation of a target microorganism by at least 50%. […]
(§5) Anti-biofilm activity assay
as §3, with “The determination of the ability of isolated compounds to prevent biofilm formation of S. aureus DSM1104 (ATCC25923) and P. aeruginosa PA148 was performed using the microtiter dish biofilm formation assay described by O’Toole9 with minor modification provided in our recent publications 1, 6, 10–14. The biofilm forming strains were enriched overnight in CASO medium with and without 4% glucose for S. aureus and P. aeruginosa , respectively. After” for “After”
(§6) After incubation, ba cterial biofilms were stained with 0.1% crystal violet solution (Sigma -Aldrich) following the protocol of O’Toole .9 Then, the biofilm was subsequently quantified using a microplate reader at 550 nm. 12 In the current study, the antibiofilm activity was expr essed as MIC value which was defined as the lowest concentration of substance that prevents the biofilm formation of a target microorganism by at least 50%. […]

Bacillus subtilis DSM10 = test: Antimicrobial activity, broth microdilution MIC; assay type: cell-based; details: Bacillus subtilis DSM10, 24 h, range 2.34–300 μg/mL, NA = No activity
Experimental: as §1
(§7) Biological activity screening of compounds 1–6
(§8) Antimicrobial activity assay
(§9) The minimum inhibitory concentration (MIC) of compounds 1–6 was determined using the broth microdilution method according to Kuephadungphan et al.4 against B. subtilis DSM10, E. coli DSM498, C. tenuis MUCL29892 and M. plumbeus MUCL49355. Stock suspension of each bacterium and yeast (100 μL) was transferred to 100 mL of EBS medium and YM medium, respectively.
(§10) Suspensions of B. subtilis and C. tenuis were incubated on a rotary shaker at 30 °C for 18–24 h while E. coli was grown at 37 °C for 24 h. After incubation, the suspension was adjusted to a concentration of 6.7 × 10^5 cells/mL using a hemacytometer. The spore suspension of M. plumbeus was prepared at a concentration of 6.7 × 10^5 conidia/mL using YM medium. The determination of MIC was performed in a 96-well microtiter plate. The compounds dissolved in methanol at a concentration of 4.5 mg/mL (20 μL) were transferred to the first row of the plate. Standard antibiotics including ciprofloxacin (bacteria) and nystatin (yeast and fungus), and methanol were used as positive and negative controls, respectively. Inoculum suspension (280 μL) was added to the first row containing compounds and 150 μL were added to the rest. The solutions were then serially 2-fold diluted to 8 concentrations ranging from 2.34–300 μg/mL. Plates were incubated at 30 °C on a microplate-vibrating shaker for 24 h for bacteria and 48 h for yeast and filamentous fungus. […]
(§11) The assay was kindly conducted by Wera Collisi, Department of Microbial Drugs, Helmholtz Centre of Infection Research, Germany. The tested cell lines were cultured in EBM -2 (Lonza) sup plemented with 10% fetal bovine serum (Gibco) under 10% CO2 at 37 °C. A 60 µL of serial dilutions from an initial stock (1 mg/mL) of the test compounds in MeOH was added to 120 µL aliquots of a cell suspension (50,000 cells/mL) in 96-well microplates.
(§12) After incubation for five days, 20 µL of MTT in phosphate buffered saline (PBS) were added to give a final concentration of 0.5 mg/mL. The plates were further incubated for two hours. The precipitate

Escherichia coli DSM498 = test: Antimicrobial activity, broth microdilution MIC; assay type: cell-based; details: 24 h, NA = No activity
Experimental: as §1, §7, §8, §9, §10, §11, §12

Candida tenuis MUCL29892 = test: Antimicrobial activity, broth microdilution MIC; assay type: cell-based; details: Candida tenuis MUCL 29892; 48 h; NA = No activity
Experimental: as §1, §7, §8, §9, §10, §11, §12

Mucor plumbeus MUCL49355 = test: Antimicrobial activity, broth microdilution MIC; assay type: cell-based; details: Mucor plumbeus MUCL 49355; 48 h; NA = No activity
Experimental: as §1, §7, §8, §9, §10, §11, §12

[2] = test system: Pseudomonas aeruginosa PA14; test: Anti-biofilm activity, microtiter dish biofilm formation assay; assay type: cell-based; details: lowest concentration preventing biofilm formation by at least 50%, 24 h, NA = No activity
Experimental: as §4, §5
as §3, with “The determination of the ability of isolated compounds to prevent biofilm formation of S. aureus DSM1104 (ATCC25923) and P. aeruginosa PA148 was performed using the microtiter dish biofilm formation assay described by O’Toole9 with minor modification provided in our recent publications 1, 6, 10–14. The biofilm forming strains were enriched overnight in CASO medium with and without 4% glucose for S. aureus and P. aeruginosa , respectively. After” for “After”
as §6

[3] = design: method as in PMID 2143181; details: cited from earlier work
Caenorhabditis elegans = test: Nematicidal activity microwell plate assay; assay type: cell-based; details: 18 h, tested 100, 50, 20 and 10 μg/mL, NA = No activity
Experimental: as §1, §2
Nematicidal activity assay
The nematicidal activity of the new compounds against C. elegans was performed by a microwell plate assay reported by Stadler et al.5 with slightly modification. The modified protocol was reported by Helaly et al.6 The studied compounds were dissolved with methanol to a concentration of […] and subsequently diluted 1:100 with sterile distilled water. […] Finally, the nematodes were counted using a Malassez counting chamber and further adjusted to obtain a concentration of 500 nematodes/mL with sterile distilled water. […] The plate was incubated at 20 °C in the dark and nematicidal activity was recorded after 18 h of incubation. The nematodes were counted under a stereo microscope. […]

CCCC[C@H](C)[C@@H]1CC(=O)N[C@@H](Cc2ccccc2)C(=O)N[C@@H](C)C(=O)N[C@H](CC(C)C)C(=O)O1 [Beauverolide I (5), beauverolide I]
IC50 at 5 days (Cytotoxicity assay (MTT); human): 20 µg/mL (≈ 41 µM)

CCCC[C@H](C)[C@@H]1CC(=O)N[C@@H](Cc2ccc(O)cc2)C(=O)N[C@@H](C)C(=O)N[C@H](CC(C)C)C(=O)O1 [Beauverolide N (4), beauverolide N]
IC50 at 5 days (Cytotoxicity assay (MTT); human, KB3.1 cells (HeLa, cervix carcinoma cell line), HeLa cell line KB3.1, MTT, five days, NA = No activity, a = Proliferation inhibition, no altered or dead cells, read-out: Cytotoxicity (IC50) KB3.1): 16 µg/mL (≈ 31.8 µM)
Anti-biofilm activity (MIC) SA [1]: 250 µg/mL

O=C(O)c1cn(C2CC2)c2cc(N3CCNCC3)c(F)cc2c1=O [Ciprofloxacin, ciprofloxacin, reference compound]
MIC (Bacillus subtilis DSM10; read-out: Antimicrobial activity (MIC) BS): 0.52 µg/mL (≈ 1.57 µM)
MIC (Escherichia coli DSM498; read-out: Antimicrobial activity (MIC) EC): 0.52 µg/mL (≈ 1.57 µM)

C/C(=C\c1csc(C)n1)[C@@H]1C[C@@H]2O[C@@H]2CCC[C@H](C)[C@H](O)[C@@H](C)C(=O)C(C)(C)[C@@H](O)CC(=O)O1 [Epothilone A, epothilone A]
IC50 at 5 days (Cytotoxicity assay (MTT); mouse, Murine fibroblast cell line L929, five days, NA = No activity): 0.0038 µg/mL (≈ 0.0077 µM)

C/C(=C\c1csc(C)n1)[C@@H]1C[C@@H]2O[C@]2(C)CCC[C@H](C)[C@H](O)[C@@H](C)C(=O)C(C)(C)[C@@H](O)CC(=O)O1 [Epothilone B, epothilone B, reference compound]
IC50 at 5 days (Cytotoxicity assay (MTT); human, HeLa cell line KB3.1, MTT, five days, NA = No activity, a = Proliferation inhibition, no altered or dead cells, read-out: Cytotoxicity (IC50) KB3.1): 0.00022 µg/mL (≈ 0.000433 µM)

CC=CC=CC1Cc2cc(OC3OC(CO)C(OC)C(O)C3O)cc(O)c2O1 (centres unmarked) [Glucoasperfuran (3), glycoasperfuran]
Antimicrobial activity (MIC) BS (Bacillus subtilis DSM10): devoid of activity
Antimicrobial activity (MIC) CT (Candida tenuis MUCL29892): devoid of activity
Antimicrobial activity (MIC) EC (Escherichia coli DSM498): devoid of activity
Antimicrobial activity (MIC) MP (Mucor plumbeus MUCL49355): devoid of activity

C[C@@H]1[C@H](O)[C@@H](C)/C=C/C=C/CC/C=C/C=C/C=C/C=C/C(O[C@H]2O[C@H](C)[C@@H](O)[C@H](N)[C@@H]2O)CC2O[C@](O)(CC(O)C(O)CCC(O)CC(O)CC(O)CC(=O)O[C@H]1C)CC(O)C2C(=O)O (some centres unmarked) [Nystatin, nystatin, reference compound]
Antimicrobial activity (MIC) CT (Candida tenuis MUCL29892): 0.52 µg/mL
Antimicrobial activity (MIC) MP (Mucor plumbeus MUCL49355): 8.33 µg/mL

CN(C)[C@@H]1C(O)=C(C(N)=O)C(=O)[C@@]2(O)C(O)=C3C(=O)c4c(O)cccc4[C@@](C)(O)[C@H]3C[C@@H]12 [Tetracycline, tetracycline, reference compound]
Anti-biofilm activity (MIC) PA [2]: 1.9 µg/mL
Anti-biofilm activity (MIC) SA [1]: 1.9 µg/mL

C/C=C/C=C/[C@H]1Cc2cc(O)cc(O)c2O1 [asperfuran]
Antifungal activity [3]: moderately antifungal

ivermectin [reference compound]
Nematicidal CE (Caenorhabditis elegans): 7.5 µg/mL
